# Measured values as given in ChEMBL document CHEMBL5634120, “Natural phytoalexins inspired the discovery of new biphenyls as potent antifungal agents for treatment of invasive fungal infections” (Eur J Med Chem, 2023).
# Key:
# Type in all cases: functional
# [1] = tested on: Candida tropicalis; assay: Antifungal activity against Candida tropicalis ATCC1369 assessed as inhibition of fungal growth incubated for 72 hrs by broth microdilution method
# [2] = tested on: Aspergillus fumigatus; assay: Antifungal activity against Aspergillus fumigatus AS3.3913 assessed as inhibition of fungal growth incubated for 72 hrs by broth microdilution method
# [3] = tested on: Cryptococcus neoformans; assay: Antifungal activity against Cryptococcus neoformans ATCC32045 assessed as inhibition of fungal growth incubated for 72 hrs by broth microdilution method
# [4] = tested on: Candida albicans; assay: Antifungal activity against Candida albicans ATCC10231 assessed as inhibition of fungal growth incubated for 72 hrs by broth microdilution method
# [5] = tested on: Cryptococcus neoformans; assay: Fungicidal activity against Cryptococcus neoformans ATCC32045 incubated for 72 hrs
# [6] = tested on: Cryptococcus neoformans; assay: Selectivity ratio of MFC for Cryptococcus neoformans ATCC32045 to MIC for Cryptococcus neoformans ATCC32045
MIC [1] [µg/mL],MIC [2] [µg/mL],MIC [3] [µg/mL],MIC [4] [µg/mL],Structure (SMILES),MFC [5] [µg/mL],Selectivity ratio [6]
128,128,64,256,CCc1ccccc1-c1cc(O)c(O)c(OC)c1,–,–
32,32,8,32,CCCCCc1ccc(-c2c(O)cccc2O)cc1,–,–
> 512,> 512,> 512,> 512,COc1cc(-c2ccccc2)cc(OCc2ccccc2)c1OCc1ccccc1,–,–
128,64,128,128,COc1cc(-c2ccccc2F)cc(O)c1O,–,–
8,512,2,> 512,CCCCCCc1cccc(-c2cc(O)c(O)c(OC)c2)c1,–,–
> 512,> 512,> 512,> 512,COc1cc(-c2ccccc2)cc(OC(=O)c2ccc(C)cc2)c1OC(=O)c1ccc(C)cc1,–,–
512,512,512,512,CCCCC(=O)c1ccc(-c2cc(O)c(O)c(OC)c2)cc1,–,–
> 512,> 512,256,> 512,Oc1cc(-c2ccccc2)cc(O)c1O,–,–
> 512,> 512,> 512,> 512,COc1cc(-c2ccccc2)cc(OC(C)=O)c1OC(C)=O,–,–
32,64,8,32,CCc1ccc(-c2cc(O)c(O)c(OC)c2)cc1,–,–
> 512,> 512,> 512,> 512,COc1cc(-c2ccccc2)cc(OC(=O)C2CCCCC2)c1OC(=O)C1CCCCC1,–,–
16,32,8,64,CCc1cc(CC)cc(-c2cc(O)c(O)c(OC)c2)c1,–,–
2,16,1,4,CCCCCc1ccc(-c2cccc(O)c2O)cc1,–,–
4,32,2,8,CCCCCc1ccc(-c2cc(O)c(O)c(O)c2)cc1,–,–
8,64,4,16,CCCc1ccc(-c2cc(O)c(O)c(OC)c2)cc1,–,–
128,128,64,128,COc1cc(-c2ccccc2)cc(O)c1O,–,–
4,32,2,16,CCCCc1ccc(-c2cc(O)c(O)c(OC)c2)cc1,–,–
64,> 512,4,512,CCCc1ccc(-c2ccc(-c3cc(O)c(O)c(OC)c3)cc2)cc1,–,–
2,8,0.5,2,CCCCCc1ccc(-c2ccc(O)cc2O)cc1,0.5,1
> 512,512,> 512,> 512,COc1cc(-c2ccccc2)cc2c1OCO2,–,–
